Laboratory results: the NIST ThermoML archive (doi:10.1021/acs.jced.7b00485)
± gives the expanded uncertainty stated by the source.

Conditions: Liquid, Closed cell (Static) method

vapor or sublimation pressure (294.23 K) | vapor or sublimation pressure (296.23 K) | vapor or sublimation pressure (308.21 K) | vapor or sublimation pressure (323.19 K) | SMILES | vapor or sublimation pressure (273.27 K) | vapor or sublimation pressure (288.25 K)
215 ± 1 kPa | 231 ± 1 kPa | 332 ± 1 kPa | 498 ± 1 kPa | CCCC [butane] | 104 ± 1 kPa | 177 ± 1 kPa
 |  |  |  | FC(F)(F)C(F)(F)F [hexafluoroethane] | 1851 ± 3 kPa | 2708 ± 4 kPa
